Values quoted from earlier work in patent US20220289705A1, “PROCESS FOR THE PREPARATION OF RIDINILAZOLE AND CRYSTALLINE FORMS THEREOF” (Summit (Oxford) Limited, priority 2019, published 2022).

Tested on: Clostridioides difficile
Settings: Phase 2 clinical trial; CDI recurrence

Compound	rates of recurrent disease
c1cc(-c2nc3cc(-c4ccc5[nH]c(-c6ccncc6)nc5c4)ccc3[nH]2)ccn1 [ridinilazole, 2,2′-di(pyridin-4-yl)-1H,1′H-5,5′-bibenzo[d]imidazole]	14.3%
CN[C@H](CC(C)C)C(=O)N[C@H]1C(=O)N[C@@H](CC(N)=O)C(=O)N[C@H]2C(=O)N[C@H]3C(=O)N[C@H](C(=O)N[C@H](C(=O)O)c4cc(O)cc(O)c4-c4cc3ccc4O)[C@H](O)c3ccc(c(Cl)c3)Oc3cc2cc(c3O[C@@H]2O[C@H](CO)[C@@H](O)[C@H](O)[C@H]2O[C@H]2C[C@](C)(N)[C@H](O)[C@H](C)O2)Oc2ccc(cc2Cl)[C@H]1O [vancomycin]	34.8%
